Columns and labels:
Test in all cases: relative viability (nuclei count vs DMSO), 5 days (fraction); higher = more cells survive
Selumetinib + OSI-027 = compound: Cn1cnc2c(F)c(Nc3ccc(Br)cc3Cl)c(C(=O)NOCCO)cc21 [Selumetinib] + COc1cccc2cc(-c3nc([C@H]4CC[C@H](C(=O)O)CC4)n4ncnc(N)c34)[nH]c12 [OSI-027] (partner 0.5 µM)
Summary of the method: (§1)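 Medians of duplicate plates are given as relative viability. That measure is the nuclei count in treated wells divided by the count in vehicle wells. Counts were taken on 4× images of lung cancer cell lines in 1536-well plates, 5 days after pin-tool dosing the day after seeding with one drug alone or a fixed anchor-drug dose plus five library-drug doses (not always all listed) in √10 steps.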

Venetoclax + Pemetrexed = compound: CC1(C)CCC(CN2CCN(c3ccc(C(=O)NS(=O)(=O)c4ccc(NCC5CCOCC5)c([N+](=O)[O-])c4)c(Oc4cnc5[nH]ccc5c4)c3)CC2)=C(c2ccc(Cl)cc2)C1 [Venetoclax] + Nc1nc2[nH]cc(CCc3ccc(C(=O)N[C@@H](CCC(=O)O)C(=O)O)cc3)c2c(=O)[nH]1 [Pemetrexed] (partner 0.2 µM)
Summary of the method: as §1

Selumetinib + Olaparib = compound: Cn1cnc2c(F)c(Nc3ccc(Br)cc3Cl)c(C(=O)NOCCO)cc21 [Selumetinib] + O=C(c1cc(Cc2n[nH]c(=O)c3ccccc23)ccc1F)N1CCN(C(=O)C2CC2)CC1 [Olaparib] (partner 8 µM)
Summary of the method: as §1

Selumetinib + Decitabine = compound: Cn1cnc2c(F)c(Nc3ccc(Br)cc3Cl)c(C(=O)NOCCO)cc21 [Selumetinib] + Nc1ncn([C@H]2C[C@H](O)[C@@H](CO)O2)c(=O)n1 [Decitabine] (partner 2 µM)
Summary of the method: as §1

Cell Line	relative viability (Selumetinib + OSI-027; first compound 0.02 µM)	relative viability (Selumetinib + OSI-027; first compound 0.06325 µM)	relative viability (Selumetinib + OSI-027; first compound 0.2 µM)	relative viability (Selumetinib + OSI-027; first compound 0.6325 µM)	relative viability (Venetoclax + Pemetrexed; first compound 0.01 µM)	relative viability (Venetoclax + Pemetrexed; first compound 0.03162 µM)	relative viability (Venetoclax + Pemetrexed; first compound 0.1 µM)	relative viability (Venetoclax + Pemetrexed; first compound 0.3162 µM)	relative viability (Venetoclax + Pemetrexed; first compound 1 µM)	relative viability (Selumetinib + Olaparib; first compound 0.02 µM)	relative viability (Selumetinib + Olaparib; first compound 0.06325 µM)	relative viability (Selumetinib + Olaparib; first compound 0.2 µM)	relative viability (Selumetinib + Olaparib; first compound 0.6325 µM)	relative viability (Selumetinib + Decitabine; first compound 0.02 µM)	relative viability (Selumetinib + Decitabine; first compound 0.06325 µM)	relative viability (Selumetinib + Decitabine; first compound 0.2 µM)	relative viability (Selumetinib + Decitabine; first compound 0.6325 µM)
NCI-H23	0.605	0.561	0.526	0.443	0.671	0.747	0.597	0.76	0.588	0.283	0.312	0.267	0.293	0.324	0.268	0.319	0.302
NCI-H647	0.717	0.512	0.614	0.478	0.164	0.192	0.206	0.178	0.178	0.608	0.605	0.479	0.643	0.354	0.351	0.621	0.447
NCI-H1915	0.603	0.425	0.33	0.301	0.405	0.499	0.484	0.517	0.476	0.259	0.248	0.214	0.192	0.28	0.263	0.239	0.246
NCI-H2087	0.466	0.434	0.256	0.177	0.7	0.65	0.785	0.707	0.668	0.527	0.38	0.322	0.243	0.267	0.253	0.249	0.213
NCI-H2085	0.71	0.499	0.35	0.428	0.756	0.948	0.86	0.823	0.798	0.704	0.771	0.689	0.671	0.524	0.593	0.537	0.544

— the supplement of paper PMC10307832
